Results taken from patent publication US8952024B2, “Herbicidal pyrimidone derivatives” (E I du Pont de Nemours and Company, priority 2009, dated 2015).

Tests used:
Assay type in all cases: in vivo
[1] = test system: velvetleaf (Abutilon theophrasti); test: Test B pre-/postemergence plant response; settings: for Plant response rating, Velvetleaf: Postemergence, scale 0 to 100 (0 no effect, 100 complete control)
Summary of the method: (§1)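 Pre-em in loam/sand; post-em at 1–4 leaf (2–18 cm) in peat mix. Solvent + surfactant formulation. Greenhouse 13–15 d; visual % control vs untreated, 0–100.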

[2] = test system: woolly cupgrass (Eriochloa villosa); test: Test B pre-/postemergence plant response
Summary of the method: as §1

[3] = test system: ragweed (common ragweed, Ambrosia elatior); test: Test B pre-/postemergence plant response; settings: for Plant response rating, Ragweed: Postemergence, scale 0 to 100 (0 no effect, 100 complete control)
Summary of the method: as §1

[4] = test system: bermudagrass (Cynodon dactylon); test: Test B pre-/postemergence plant response
Summary of the method: as §1

[5] = test system: blackgrass (Alopecurus myosuroides); test: Test B pre-/postemergence plant response
Summary of the method: as §1

corn (Zea mays) = test: Test B pre-/postemergence plant response
Summary of the method: as §1

[6] = test system: Surinam grass (Brachiaria decumbens); test: Test B pre-/postemergence plant response; settings: for Plant response rating, Surinam Grass: Postemergence, scale 0 to 100 (0 no effect, 100 complete control)
Summary of the method: as §1

[7] = test system: Italian ryegrass (Lolium multiflorum); test: Test B pre-/postemergence plant response; settings: for Plant response rating, Ryegrass, Italian: Postemergence, scale 0 to 100 (0 no effect, 100 complete control)
Summary of the method: as §1

[8] = test system: lambsquarters (Chenopodium album); test: Test B pre-/postemergence plant response
Summary of the method: as §1

[9] = test system: yellow nutsedge (Cyperus esculentus); test: Test B pre-/postemergence plant response
Summary of the method: as §1

[10] = test system: large crabgrass (Digitaria sanguinalis); test: Test B pre-/postemergence plant response
Summary of the method: as §1

soybean (Glycine max) = test: Test B pre-/postemergence plant response; settings: for Plant response rating, Soybean: Postemergence, scale 0 to 100 (0 no effect, 100 complete control)
Summary of the method: as §1

wild oat (Avena fatua) = test: Test B pre-/postemergence plant response
Summary of the method: as §1

[11] = test system: johnsongrass (Sorghum halepense); test: Test B pre-/postemergence plant response
Summary of the method: as §1

[12] = test system: winter barley (Hordeum vulgare); test: Test B postemergence plant response
Summary of the method: (§2)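 Plants at the 1- to 4-leaf stage (2 to 18 cm tall), grown in pots of peat moss/vermiculite medium with wetting agent and starter nutrients, received postemergence applications of test chemicals. After 13 to 15 days in a greenhouse, injury was rated visually against untreated controls on a 0 (no effect) to 100 (complete control) scale.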

[13] = test system: canarygrass (Phalaris minor); test: Test B postemergence plant response
Summary of the method: as §2

[14] = test system: windgrass (Apera spica-venti); test: Test B postemergence plant response
Summary of the method: as §2

[15] = test system: chickweed (Stellaria media); test: Test B postemergence plant response
Summary of the method: as §2

[16] = 62 g ai/ha, postemergence, 0 is no effect, 100 is complete control, 13 to 15 days
[17] = 31 g ai/ha, postemergence, scale 0 to 100, 0 is no effect, 100 is complete control
[18] = Postemergence, 125 g ai/ha, scale 0 to 100 (0 no effect, 100 complete control)
[19] = Postemergence, 250 g ai/ha, scale 0 to 100 (0 no effect, 100 complete control)

`COCCn1c(-c2cccs2)ncc(C(=O)C2=C(O)CCCC2=O)c1=O` [Compound 108] was tested, and the “Velvetleaf plant response rating (0 to 100 scale)” value [1, 16] was 100, the “Plant response rating, Velvetleaf” value ([1]; 125 g ai/ha) was 100 and the “Plant response rating, Velvetleaf” value ([1]; 250 g ai/ha) was 100. For the same compound, the “Plant response rating, Cupgrass, Woolly” value [2, 17] was 40, the “Cupgrass, Woolly plant response rating (0 to 100 scale)” value [2, 16] was 60 and the “Plant response rating, Cupgrass, Woolly” value [2, 18] was 70. For the same compound, the “Plant response rating, Cupgrass, Woolly” value [2, 19] was 75, the “Ragweed plant response rating (0 to 100 scale)” value [3, 16] was 85 and the “Plant response rating, Ragweed” value ([3]; 125 g ai/ha) was 95. For the same compound, the “Plant response rating, Ragweed” value ([3]; 250 g ai/ha) was 98, the “Plant response rating, Bermudagrass” value [4, 17] was 85 and the “Bermudagrass plant response rating (0 to 100 scale)” value [4, 16] was 90. For the same compound, the “Plant response rating, Bermudagrass” value [4, 18] was 100, the “Plant response rating, Bermudagrass” value [4, 19] was 100 and the “Plant response rating, Blackgrass” value [5, 17] was 0. For the same compound, the “Blackgrass plant response rating (0 to 100 scale)” value [5, 16] was 5, the “Plant response rating, Blackgrass” value [5, 18] was 20 and the “Plant response rating, Blackgrass” value [5, 19] was 30. For the same compound, the “Plant response rating, Corn” value (corn (Zea mays); [17]) was 15, the “Corn plant response rating (0 to 100 scale)” value (corn (Zea mays); [16]) was 35 and the “Plant response rating, Corn” value (corn (Zea mays); [18]) was 50. The “Plant response rating, Corn” value (corn (Zea mays); [19]) was 65, the “Surinam Grass plant response rating (0 to 100 scale)” value [6, 16] was 60 and the “Plant response rating, Surinam Grass” value ([6]; 125 g ai/ha) was 65. The “Plant response rating, Surinam Grass” value ([6]; 250 g ai/ha) was 80, the “Ryegrass, Italian plant response rating (0 to 100 scale)” value [7, 16] was 0 and the “Plant response rating, Ryegrass, Italian” value ([7]; 125 g ai/ha) was 0. The “Plant response rating, Ryegrass, Italian” value ([7]; 250 g ai/ha) was 0, the “Plant response rating, Lambsquarters” value [8, 17] was 98 and the “Lambsquarters plant response rating (0 to 100 scale)” value [8, 16] was 98. The “Plant response rating, Lambsquarters” value [8, 18] was 100, the “Plant response rating, Lambsquarters” value [8, 19] was 100 and the “Plant response rating, Nutsedge, Yellow” value [9, 17] was 50. The “Nutsedge, Yellow plant response rating (0 to 100 scale)” value [9, 16] was 75, the “Plant response rating, Nutsedge, Yellow” value [9, 18] was 80 and the “Plant response rating, Nutsedge, Yellow” value [9, 19] was 85. The “Plant response rating, Crabgrass, Large” value [10, 17] was 60, the “Crabgrass, Large plant response rating (0 to 100 scale)” value [10, 16] was 70 and the “Plant response rating, Crabgrass, Large” value [10, 18] was 75. The “Plant response rating, Crabgrass, Large” value [10, 19] was 85, the “Soybean plant response rating (0 to 100 scale)” value (soybean (Glycine max); [16]) was 55 and the “Plant response rating, Soybean” value (soybean (Glycine max); 125 g ai/ha) was 65. The “Plant response rating, Soybean” value (soybean (Glycine max); 250 g ai/ha) was 85, the “Plant response rating, Oat, Wild” value (wild oat (Avena fatua); [17]) was 0 and the “Oat, Wild plant response rating (0 to 100 scale)” value (wild oat (Avena fatua); [16]) was 0. The “Plant response rating, Oat, Wild” value (wild oat (Avena fatua); [18]) was 0, the “Plant response rating, Oat, Wild” value (wild oat (Avena fatua); [19]) was 0 and the “Plant response rating, Johnsongrass” value [11, 17] was 10. For the same compound, the “Johnsongrass plant response rating (0 to 100 scale)” value [11, 16] was 20, the “Plant response rating, Johnsongrass” value [11, 18] was 20 and the “Plant response rating, Johnsongrass” value [11, 19] was 60. For the same compound, the “Plant response rating, Barley” value [12, 17] was 0, the “Barley plant response rating (0 to 100 scale)” value [12, 16] was 0 and the “Plant response rating, Barley” value [12, 18] was 0. The “Plant response rating, Barley” value [12, 19] was 0, the “Plant response rating, Canarygrass” value [13, 17] was 0 and the “Canarygrass plant response rating (0 to 100 scale)” value [13, 16] was 5. The “Plant response rating, Canarygrass” value [13, 18] was 5, the “Plant response rating, Canarygrass” value [13, 19] was 5 and the “Windgrass plant response rating (0 to 100 scale)” value [14, 16] was 10. The “Plant response rating, Windgrass” value [14, 18] was 30, the “Plant response rating, Chickweed” value [15, 17] was 85 and the “Chickweed plant response rating (0 to 100 scale)” value [15, 16] was 100. The “Plant response rating, Chickweed” value [15, 18] was 100 and the “Plant response rating, Chickweed” value [15, 19] was 100.
